Two compounds from patent US20180344680A1, “COMPOSITIONS AND METHODS FOR TREATMENT, AMELIORATION, AND PREVENTION OF DIABETES-RELATED SKIN ULCERS” (THE ARIZONA BOARD OF REGENTS ON BEHALF OF THE UNIVERSITY OF …, priority 2015, published 2018) can be followed below.

One experiment concerns NRF2 pathway. The experiment can be described thus: Immunoblot and IHC of NRF2 and its target genes in wound skin tissues of STZ mice. Type of experiment: in vivo, mouse. As to conditions: 12.5 mg/kg SF or 50 mg/kg CA i.p. every other day; for protein expression of NRF2 and its target genes HO-1, AKR1C1, and NQO1 (immunoblot): diabetic mouse skin tissue lysates; for NRF2 and HO-1 level by IHC: wound skin tissues of diabetic mice.

For experiment [1], the system named is HaCaT cells. The experiment can be described thus: In vitro wounding assay (PDMS barrier) of keratinocyte migration. Type of experiment: cell-based, human. Particulars: HG HaCaT cells; 5 μmol/L SF or 20 μmol/L CA; up to 72 h. The protocol:
(§1) Human immortalized keratinocytes HaCaT were obtained from the Arizona Cancer Center (see, e.g., Boukamp P, et al., J Cell Biol 106:761-771, 1988). Cells were grown in Dulbecco's modified Eagle's medium (DMEM) containing low glucose (LG, 5.5 mmol/L) and 10% fetal bovine serum (FBS) in an incubator at 37° C. with 5% CO2. For the experiments, the cells were starved in serum-free LG DMEM for 24 h, then either maintained in LG DMEM or switched to high glucose (HG, 25 mmol/L) DMEM for 2 days (see, e.g., Zheng H, et al., Diabetes 60:3055-3066, 2011; Lan C C, et al., Br J Dermatol 159:1103-1115, 2008). For the treatments, the cells were dosed with 5 μmol/L SF or 20 μmol/L CA.
siRNA transfections. HaCaT cells were transfected with either a non-specific, control small interfering RNA (Con-siRNA, #1027281, Qiagen, Valencia, Calif.) or an NRF2-specific siRNA (#S100657937) using the HiPerfect transfection reagent (Qiagen) according to the manufacturer's instructions. Briefly, cells were maintained in LG or HG DMEM for 2 days and then transfected with either control or NRF2 siRNA for migration, proliferation, and apoptosis experiments. For the ROS detection, cells were maintained in LG DMEM and transfected with either control or NRF2 siRNA; 24 h later, the cells were switched to HG DMEM and treated as indicated.
In vitro wounding assay. […]

The subject of experiment [2] is HaCaT cells. The experiment can be described thus: Cell growth (xCELLigence) of HaCaT cells. Type of experiment: cell-based, human. As to conditions: 5 μmol/L SF or 20 μmol/L CA, up to 72 h. The protocol:
as §1
(§2) siRNA transfections. […]
(§3) Reactive oxygen species (ROS) measurement, cell proliferation and apoptosis. ROS were measured in HaCaT cells using DCF. […] Then, 48 h later, the cells were switched into fresh medium containing 10 μg/mL DCF, incubated 30 min, and fluorescence intensity was measured by flow cytometry. The rate of cell proliferation was measured by two methods (see, e.g., Ren D, et al., Proc Natl Acad Sci USA 108:1433-1438, 2011): 1) detection of Ki67 using indirect immunofluorescence as described previously (see, e.g., Lau A, et al., Mol Cell Biol 30:3275-3285, 2010); and 2) using the xCELLigence system (Roche). […]

In the next experiment the test system is Ki67. In words: Ki67 immunofluorescence in HaCaT cells. In kind it is cell-based, human. As to conditions: HG HaCaT cells; 5 μmol/L SF or 20 μmol/L CA. The protocol: as §1, §2, §3
A short description of experiment [3]: Digital infrared thermal imaging of wounds in STZ mice. Type of experiment: in vivo, mouse. Particulars: exaggerated gradient vs Con group.
Protocol: Diabetes mouse model and treatments. […] Briefly, three weeks after STZ injections, fasting glucose levels (FGL, 4 h fast) were measured using the AlphaTRAK system (Abbott Laboratory, North Chicago, Ill.) and mice with a FGL higher than or equal to 250 mg/dL were considered diabetic and included in the study (see, e.g., FIG. 2A and FIG. 3A for a detailed timeline). The mice (n=5-8) were then allocated randomly to each of the indicated treatment groups and received corn oil (control), 12.5 mg/kg SF or 50 mg/kg CA intraperitoneally every two days until skin tissues were harvested. One week after the treatments, the mice were anesthetized, their backs were shaved and cleaned. Two wounds were made with a sterile 6 mm skin biopsy punch (Health link, Jacksonville, Fla.) and covered with 3M Tegaderm pads. The wounds were photographed using an in vivo imaging system and an infrared integrated system (IRISYS, Northampton, UK) for 14 days. Gross wound closure was quantified by ImageJ software, and wound healing was expressed as the percentage of the original wound area that had healed. The tissues were collected using an 8 mm skin biopsy punch; one half was fixed in 10% buffered formalin and embedded in paraffin while the other half was used for protein extraction. […]
The next experiment deals with MMP9. The experiment can be described thus: MMP9 immunoblot and gelatin zymography in HaCaT cells under high glucose. In kind it is cell-based, human. As to conditions: HG HaCaT cells, 5 μmol/L SF or 20 μmol/L CA. The protocol: as §1, §2
Cultured HaCaT cells were harvested in 1× sample buffer (50 mM Tris-HCl pH 6.8, 2% sodium dodecyl sulfate (SDS), 10% glycerol, 100 mM dithiothreitol (DTT), 0.1% bromophenol blue), boiled and sonicated. […] TGF-β1 was measured using the Quantikine human TGF-β1 immunoassay kit (R&D systems; Minneapolis, Minn.) according to the manufacturer's instructions. The absorbance at 450 nm was measured using a Synergy 2 microplate reader (BioTek, Winooski, Vt.) and the amount of TGF-β1 was calculated by standard curve. MMP9 activity was evaluated by gelatin zymography as described elsewhere (see, e.g., Toth M, et al., Methods Mol Biol 878:121-135, 2012; Zhu P, et al., Exp Dermatol 21:123-129, 2012). […]
In general terms: A western blot detects proteins with antibodies after separation by electrophoresis.

Protocol for NRF2 pathway: Diabetes mouse model and treatments. […] The STZ-induced diabetic model was previously described (see, e.g., Zheng H, et al., Diabetes 60:3055-3066, 2011) and only 8 week old male mice were included in this study. Briefly, three weeks after STZ injections, fasting glucose levels (FGL, 4 h fast) were measured using the AlphaTRAK system (Abbott Laboratory, North Chicago, Ill.) and mice with a FGL higher than or equal to 250 mg/dL were considered diabetic and included in the study (see, e.g., FIG. 2A and FIG. 3A for a detailed timeline). The mice (n=5-8) were then allocated randomly to each of the indicated treatment groups and received corn oil (control), 12.5 mg/kg SF or 50 mg/kg CA intraperitoneally every two days until skin tissues were harvested. One week after the treatments, the mice were anesthetized, their backs were shaved and cleaned. Two wounds were made with a sterile 6 mm skin biopsy punch (Health link, Jacksonville, Fla.) and covered with 3M Tegaderm pads. […] The tissues were collected using an 8 mm skin biopsy punch; one half was fixed in 10% buffered formalin and embedded in paraffin while the other half was used for protein extraction. […] Wounds and tissue collection were performed as described above.
Immunohistochemistry (IHC), immunoblot analyses, TGF-β1 immunoassay, and gelatin zymography. […] For IHC, antigen retrieval was performed by boiling in sodium citrate buffer (10 mM, pH 6.0) or EDTA buffer (1 mM, pH 8.0). After blocking endogenous peroxidase and non-specific binding, tissue sections were incubated with the indicated primary antibodies. Staining was performed using the Envision system HRP-DAB kit (DAKO North America, CA) according to the manufacturer's instructions.
For protein detection of mouse skin tissues were homogenized in lysis buffer (50 mM Tris-HCl buffer pH 7.4, 100 mM DTT, 2% SDS, 10% glycerol). Protein concentration was measured using Quant-iT Protein Assay (Invitrogen) and 150 μg of protein were resolved by SDS-PAGE and immunoblotting analyses with the indicated antibodies.
To explore the feasibility of pharmacologic activation of NRF2 in facilitating diabetic wound healing, sulforaphane (SF) and cinnamaldehyde (CA), two well-studied NRF2 activators, were tested for their ability to activate the NRF2-mediated antioxidant response in mouse skin tissues. After induction of diabetes using STZ, diabetic Nrf2^+/+ mice were intraperitoneally injected with corn oil (vehicle control), 12.5 mg/kg SF, or 50 mg/kg CA every other day for 1 week, then the wound surgery was performed and the treatment continued for 2 more weeks (FIG. 3A).

Take `O=CC=Cc1ccccc1` [CA, Cinnamaldehyde]: in the experiment with NRF2 pathway, the “protein expression of NRF2 and its target genes HO-1, AKR1C1, and NQO1 (immunoblot)” value is on record as “upregulated”; the “NRF2 and HO-1 level by IHC” value is “high level”. The “in vitro wound closure (cell migration)” value in the experiment with HaCaT cells [1] is given as “significantly accelerated wound closure in HG cells”. The “inhibition of cell proliferation by HG (cell growth)” value with HaCaT cells [2] is “partly counteracted”. Also, the Ki67 expression entry with Ki67 is reported as “could restore some of the Ki67 expression”. The “temperature gradients (ΔT) between wound area and surrounding healthy tissue” value in experiment [3] is reported as “abolished this effect”. Further, the “expression and activity of MMP9” value with MMP9 is recorded as “decreased”.
On to `C[S@@+]([O-])CCCCN=C=S` [SF, L-sulforaphane], for which, in the experiment with NRF2 pathway, the “protein expression of NRF2 and its target genes HO-1, AKR1C1, and NQO1 (immunoblot)” value was “upregulated”; the “NRF2 and HO-1 level by IHC” value was “high level”. Also, in the experiment with HaCaT cells [1], the “in vitro wound closure (cell migration)” value was “significantly accelerated wound closure in HG cells”. Further, the “inhibition of cell proliferation by HG (cell growth)” value in the experiment on HaCaT cells [2] is “partly counteracted”. Further, the Ki67 expression result in the experiment with Ki67 is listed as “could restore some of the Ki67 expression”. For the same compound, in experiment [3], the “temperature gradients (ΔT) between wound area and surrounding healthy tissue” value is “abolished this effect”. Besides, in the experiment on MMP9, the “expression and activity of MMP9” value is listed as “decreased”.
